Measured values reported in patent US8952192B2, “Phosphorylated and branched dihydroxy-pentane-dione (DPD) analogs as quorum sensing inhibitors in bacteria” (University of Maryland, College Park, priority 2011, dated 2015).
“Also recorded” adds a separate entry of the source. Read-outs that look alike come from different tables or passages of the source.

How the values were obtained:
E. coli W3110 pCT6 dsRED = assay: Tri-species synthetic ecosystem (E. coli, S. typhimurium, P. aeruginosa): AI-2 mediated dsRED expression; format: cell-based; conditions: tri-species culture, 40 μM analog, no exogenous AI-2, 24 h
Method: (§1) Effect of analogs in a tri-species synthetic ecosystem. […] Isobutyl-DPD (40 μM) and phenyl-DPD (40 μM) were added to a tri-species synthetic ecosystem created by culturing E. coli, S. typhimurium and P. aeruginosa in the same tubes. In order to differentiate and monitor the QS response from each organism, different and orthogonal reporter strains were used; in E. coli, AI-2 mediated dsRED expression, in S. typhimurium, AI-2 mediated β-galactosidase production; and in P. aeruginosa effects of AI-2 were examined for pyocyanin production.
(§2) S. typhimurium MET708, P. aeruginosa PAO1 and E. coli W3110 pCT6 dsRED were each cultured separately overnight in LB medium supplemented with the appropriate antibiotic. P. aeruginosa PAO1, S. typhimurium MET708 and E. coli W3110 pCT6 dsRED were diluted (25 μL:2.5 μL:100 μL) of the overnight culture respectively, into a single 2 mL final volume of fresh LB medium without antibiotics. […] The S. typhimurium lacZ (β-galactosidase) activity was measured after 4 h. The E. coli response was determined after 24 h, by fixing the cells with 1:1 cold 4% paraformaldehyde and using flow cytometric analysis. Samples were analyzed by flow cytometry (FACS Canto II, BD 394 Biosciences), with 30,000 gated events analyzed per sample. […]

S. typhimurium MET708 = assay: Tri-species synthetic ecosystem (E. coli, S. typhimurium, P. aeruginosa): AI-2 mediated β-galactosidase production; format: cell-based; conditions: tri-species culture, 40 μM analog, no exogenous AI-2, 4 h
Method: as §1, §2

[1] = test system: pyocyanin production in P. aeruginosa PAO1; assay: QS response (pyocyanin production); format: cell-based; conditions: pure culture P. aeruginosa PAO1, DPD analogs (100 μM)
Method: Identifying Modulators of P. aeruginosa QS. DPD analogs (100 μM) were screened for activity in P. aeruginosa PAO1 by monitoring pyocyanin production (FIG. 34b and FIG. 38).
The cells were grown with the analog at 3 mL total volume in 50 mL flasks in LB medium, with continuous shaking. Between 22-24 h, when the cells turned green after pyocyanin secretion, the pigment was extracted. The pyocyanin quantification assay was conducted as described. 2 mL chloroform was added to the 3 mL culture and pipetted up and down. 1 mL of the chloroform was transferred to a separate tube and the pyocyanin was re-extracted into 200 μL of 0.2 M HCl. The absorbance of the solution was measured at OD 520 nm. To calculate the concentration of pyocyanin extracted as μg/mL, the OD at 520 nm was multiplied by 17.07.

[2] = test system: lsr expression in E. coli (lsr-lacZ reporter strains); assay: QS response (lsr expression): AI-2 dependent β-galactosidase production, Miller assay; format: cell-based, Escherichia coli
Method: (§3) The panel of C1-alkyl analogs was screened to identify QS modulators in the enteric bacteria E. coli and S. typhimurium. Transcription of the QS associated lsr operon, by using lsr-lacZ reporter strains (Table 2) which produce β-galactosidase in response to added AI-2 was monitored. In order to first establish if the analogs were agonists or antagonists in the QS circuit, the analogs were incubated with E. coli LW7 pLW11 and S. typhimurium MET715 (FIG. 19a-b) both of which are luxS^−. None of the analogs, except ethyl-DPD behaved as agonists for lsr expression. Previous studies investigating AI-2 antagonism in P. aeruginosa or in S. typhimurium were carried out using chemically synthesized AI-2 added to luxS^− cells. […] The same trends were obtained by adding a 1:1 ratio of enzymatically synthesized AI-2 and DPD analogs to the luxS^− strains E. coli LW7 pLW11 and S. typhimurium MET715 (FIG. 11a-b). None of the tested DPD analogs were bacteriocidal or bacteriostatic as the OD600 values of E. coli ZK126 pLW11 and S. typhimurium MET708 in the presence and absence of the analogs were similar (FIG. 10). Though the QS circuitry of the enteric organisms, E. coli and S. typhimurium are homologous they respond differently to the DPD analogs. The E. coli QS circuitry is susceptible to being silenced by a variety of DPD analogs of different shapes and sizes whereas in S. typhimurium, only a handful of DPD analogs could antagonize the action of AI-2. […] Isobutyl-DPD emerged as an effective and non-species-specific quencher; causing significant lsr expression knockdowns in both E. coli and S. typhimurium.
(§4) The QS response indicated by lsr gene expression was analyzed in pure culture studies by culturing E. coli LW7 pLW11, E. coli ZK126 pLW11 and S. typhimurium MET708, S. typhimurium MET715 overnight in LB medium supplemented with appropriate antibiotics as stated previously. These cells were then diluted into fresh LB medium (with antibiotics) and grown to an OD600 of 0.8-1.0 at 30° C., 250 rpm. Cells were then collected by centrifugation at 10,000×g for 10 minutes, and resuspended in 10 mM phosphate buffer. AI-2 (20 μM) and the respective analog (20 μM) were added to the E. coli or S. typhimurium suspension for 2 hours at 37° C. AI-2 dependent β-galactosidase production was quantified by the Miller assay.
(§5) The QS response indicated by lsr gene expression was analyzed in pure culture studies by culturing E. coli LW7 pLW11 and S. typhimurium MET715 overnight at 30° C. in LB medium supplemented with appropriate antibiotics as stated previously. These cells were then diluted into fresh LB medium (with antibiotics) and grown to an OD600 of 0.4-0.8 at 37° C., 250 rpm. Cells were then collected by centrifugation at 10,000×g for 10 min and resuspended in 10 mM phosphate buffer. AI-2 (20 μM) and the respective analog (20 μM) were added to the E. coli or S. typhimurium suspension for 2 h at 37° C. AI-2 dependent β-galactosidase production was quantified by the Miller assay.
(§6) The QS response indicated by lsr gene expression was analyzed in pure culture studies by culturing E. coli LW7 pLW11, E. coli ZK126 pLW11 and S. typhimurium MET708, S. typhimurium MET715 overnight in LB medium individually supplemented with appropriate antibiotics, as specified above. These cells were diluted into fresh LB medium (with antibiotics) and grown to an OD600 of 0.8-1.0 at 30° C., 250 rpm. Cells were collected by centrifugation at 10,000×g for 10 minutes, and resuspended in 10 mM phosphate buffer. AI-2 (20 μM) and the respective analog (20 μM) were added to the E. coli or S. typhimurium suspension for 2 hours at 37° C. AI-2 dependent β-galactosidase production was quantified by the Miller assay.

[3] = test system: lsr expression in S. typhimurium (lsr-lacZ reporter strains); assay: as above; format: cell-based, Salmonella typhimurium
Method: as §3, §4, §5, §6

| SMILES | QS inhibition in E. coli (dsRED expression) (E. coli W3110 pCT6 dsRED) | QS inhibition in S. typhimurium (β-galactosidase production) (S. typhimurium MET708) | inhibition of pyocyanin production [1] | inhibition of AI-2-mediated lsr expression (β-galactosidase), in words ([2]; E. coli LW7 pLW11 (luxS−), 20 μM AI-2 (DPD) + 20 μM analog) | IC50 ([2]; Escherichia coli, read-out: IC50 (lsr expression in E. coli)) [nM] | effect on native lsr expression (QS response) ([2]; E. coli ZK126 pLW11 (luxS+), cells produce their own AI-2) | IC50 (lsr expression in E. coli), in words ([2]; Example 6) | IC50 ([2]; concentration reducing lsr expression (β-galactosidase production) to 50% in the presence of 20 μM exogenously added synthetic DPD, read-out: IC50 of analog (nM) to inhibit QS in E. coli) [nM] | effect on native lsr expression (QS response) ([3]; S. typhimurium MET708 (luxS+), cells produce their own AI-2) | decrease of lacZ expression ([3]; S. typhimurium MET715 (LuxS−), 20 μM AI-2 + 20 μM analog) | IC50 ([3]; concentration reducing lsr expression (β-galactosidase production) to 50% in the presence of 20 μM exogenously added synthetic DPD, read-out: IC50 of analog (nM) to inhibit QS in S. typhimurium) [nM] |
| --- | --- | --- | --- | --- | --- | --- | --- | --- | --- | --- | --- |
| O=C(C(=O)C(O)CO)c1ccccc1 (centres unmarked) [Phenyl-DPD, Phenyl DPD] | largely ineffective | largely ineffective | some inhibition | no | > 40000 |  |  |  |  |  |  |
| CC(C)CC(=O)C(=O)[C@@H](O)CO [Isobutyl-DPD, isobutyl-DPD] | inhibit all three species | inhibit all three species | lack of inhibitory effects |  |  | significant knocked down; also recorded: potent QS “quencher” | nanomolar range | 54 | significant knocked down; also recorded: significantly inhibited signaling | about 50% | 20000 |
